Calls of active or inactive are those of the source. The rule behind the calls is not given here.
Experiments:
Huh-7 [1] = assay: Hepatoprotective activity against CCL4-induced toxicity in human HuH7 cells assessed as decrease in aspartate aminotransferase level at 10 to 1000 ug/ml incubated for 1 hr prior to CCL4-challenge measured after 2 hrs relative to control; format: functional, cell-based
Huh-7 [2] = assay: Hepatoprotective activity against CCL4-induced toxicity in human HuH7 cells assessed as increase in GSH level at 10 to 1000 ug/ml incubated for 1 hr prior to CCL4-challenge measured after 2 hrs relative to control; format: functional, cell-based
Huh-7 [3] = assay: Hepatoprotective activity against CCL4-induced toxicity in human HuH7 cells assessed as aspartate aminotransferase level at 10 ug/ml incubated for 1 hr prior to CCL4-challenge measured after 2 hrs (reference value: 38.9 +/- 7.9 U/ml); format: functional
Huh-7 [4] = assay: Hepatoprotective activity against CCL4-induced toxicity in human HuH7 cells assessed as decrease in alanine transaminase level at 10 to 1000 ug/ml incubated for 1 hr prior to CCL4-challenge measured after 2 hrs relative to control; format: functional, cell-based
Huh-7 [5] = assay: Hepatoprotective activity against CCL4-induced toxicity in human HuH7 cells assessed as increase in superoxide dismutase activity at 10 to 1000 ug/ml incubated for 1 hr prior to CCL4-challenge measured after 2 hrs relative to control; format: functional, cell-based
Huh-7 [6] = assay: Hepatoprotective activity against CCL4-induced toxicity in human HuH7 cells assessed as superoxide dismutase activity at 100 ug/ml incubated for 1 hr prior to CCL4-challenge measured after 2 hrs (reference value: 168.4 +/- 24.9 U/ml); format: functional
Huh-7 [7] = assay: Hepatoprotective activity against CCL4-induced toxicity in human HuH7 cells assessed as alanine transaminase level at 100 ug/ml incubated for 1 hr prior to CCL4-challenge measured after 2 hrs (reference value: 21.5 +/- 3.7 U/ml); format: functional

Row | Structure (SMILES) | Activity (Huh-7 [1]) | Activity (Huh-7 [2]) | Activity (Huh-7 [3]) | Activity (Huh-7 [4]) | Activity (Huh-7 [5]) | Activity (Huh-7 [6]) | Activity (Huh-7 [7])
1 | O=c1c(OC2O[C@H](CO)[C@@H](O)[C@H](O)[C@H]2O)c(-c2cc(O)c(O)c(O)c2)oc2cc(O)cc(O)c12 (stereo not given in full) [MYRICETIN 3-O-GLUCOSIDE] | Active | Active | 5.8 U/ml | Active | Active | – | –
2 | COc1ccc(-c2oc3cc(O[C@@H]4O[C@@H](C)[C@H](OC(=O)/C=C/c5ccc(O)cc5)[C@@H](O)[C@H]4O)cc(O)c3c(=O)c2O[C@@H]2O[C@H](CO)[C@@H](O)[C@H](O[C@@H]3O[C@@H](C)[C@H](O)[C@@H](O)[C@H]3O)[C@H]2OC(=O)/C=C/c2ccc(O)cc2)cc1 | Active | Active | – | Active | Active | 264.6 U/ml | 18.6 U/ml
3 | O=c1c(O[C@@H]2O[C@H](CO)[C@@H](O)[C@H](O)[C@H]2O)c(-c2ccc(O)c(O)c2)oc2cc(O)cc(O)c12 | Active | Active | – | Active | Active | – | –

Source: ChEMBL document CHEMBL3046204, “Protective effect of Centaurea pallescens Del. against CCl4-induced injury on a human hepatoma cell line (Huh7)” (2013)
